From PMC5218480 (PLoS ONE, 2017)

Tested on: MV-4-11 cells
Assay: Gene expression microarray analysis (Affymetrix PrimeView) and GSEA
Assay type: cell-based, human
Design: RFU PODN (11730768_x_at) / Fold change /veh PODN (11730768_x_at) / RFU LINC00158 (11744669_a_at) / Fold change /veh LINC00158 (11744669_a_at) / RFU DUSP10 (11751237_a_at) / Fold change /veh DUSP10 (11751237_a_at) / RFU ID3 (11757404_x_at) / Fold change /veh ID3 (11757404_x_at) / RFU PLEKHG5 (11737974_s_at) / Fold change /veh PLEKHG5 (11737974_s_at) / RFU LRRC4B (11730491_at) / Fold change /veh LRRC4B (11730491_at) / RFU GIMAP4 (11747438_a_at) / Fold change /veh GIMAP4 (11747438_a_at) / RFU KRT8 (11758183_x_at) / Fold change /veh KRT8 (11758183_x_at) / RFU CNN1 (11734310_a_at) / Fold change /veh CNN1 (11734310_a_at) / RFU VPS37D (11726825_at) / Fold change /veh VPS37D (11726825_at) / RFU C10orf10 (11716522_x_at) / Fold change /veh C10orf10 (11716522_x_at) / RFU KIR2DL2 /// KIR2DL4 /// KIR2DL5A /// KIR2DL5B /// KIR2DS1 /// KIR2DS2 /// KIR2DS3 /// KIR2DS4 /// KIR3DL3 /// KIR3DL3 /// KIR3DS1 (11738374_at) / Fold change /veh KIR2DL2 /// KIR2DL4 /// KIR2DL5A /// KIR2DL5B /// KIR2DS1 /// KIR2DS2 /// KIR2DS3 /// KIR2DS4 /// KIR3DL3 /// KIR3DL3 /// KIR3DS1 (11738374_at) / RFU C1QL1 (11718748_at) / Fold change /veh C1QL1 (11718748_at) / RFU TMPRSS4 (11747572_a_at) / Fold change /veh TMPRSS4 (11747572_a_at) / RFU HAMP (11756126_x_at) / Fold change /veh HAMP (11756126_x_at) / RFU RNFT2 (11725882_a_at) / Fold change /veh RNFT2 (11725882_a_at) / RFU NR4A2 (11747474_a_at) / Fold change /veh NR4A2 (11747474_a_at) / RFU ABCC12 (11746883_a_at) / Fold change /veh ABCC12 (11746883_a_at) / RFU TMEM136 (11760407_x_at) / Fold change /veh TMEM136 (11760407_x_at) / RFU CLDN22 /// WWC2 (11732394_at) / Fold change /veh CLDN22 /// WWC2 (11732394_at) / RFU HLA-DPB1 (11760878_x_at) / Fold change /veh HLA-DPB1 (11760878_x_at) / RFU SPINT1 (11716480_a_at) / Fold change /veh SPINT1 (11716480_a_at) / RFU GAP43 (11754022_s_at) / Fold change /veh GAP43 (11754022_s_at) / RFU A4GNT (11735810_at) / Fold change /veh A4GNT (11735810_at) / RFU PRB3 (11715151_x_at) / Fold change /veh PRB3 (11715151_x_at) / RFU TUBB4B (11761932_at) / Fold change /veh TUBB4B (11761932_at) / RFU CAPN14 (11732068_a_at) / Fold change /veh CAPN14 (11732068_a_at) / RFU TMCC2 (11721928_a_at) / Fold change /veh TMCC2 (11721928_a_at) / RFU IRGQ (11745062_a_at) / Fold change /veh IRGQ (11745062_a_at) / RFU FAM174B (11720279_a_at) / Fold change /veh FAM174B (11720279_a_at) / RFU TMPRSS4 (11748680_a_at) / Fold change /veh TMPRSS4 (11748680_a_at) / RFU FAM212B (11763350_a_at) / Fold change /veh FAM212B (11763350_a_at) / RFU PLEKHG5 (11743358_a_at) / Fold change /veh PLEKHG5 (11743358_a_at) / RFU ZSCAN30 (11745921_a_at) / Fold change /veh ZSCAN30 (11745921_a_at) / RFU CMKLR1 (11741424_a_at) / Fold change /veh CMKLR1 (11741424_a_at) / RFU LOC101060620 /// MAPK8IP1 (11723275_at) / Fold change /veh LOC101060620 /// MAPK8IP1 (11723275_at) / RFU SPTSSB (11747773_x_at) / Fold change /veh SPTSSB (11747773_x_at) / RFU PRSS12 (11739890_at) / Fold change /veh PRSS12 (11739890_at) / RFU BIN1 (11741810_x_at) / Fold change /veh BIN1 (11741810_x_at) / RFU WNT11 (11732464_a_at) / Fold change /veh WNT11 (11732464_a_at) / RFU C10orf10 (11716521_a_at) / Fold change /veh C10orf10 (11716521_a_at) / RFU C5orf56 (11738089_at) / Fold change /veh C5orf56 (11738089_at) / RFU CYB561 (11721691_x_at) / Fold change /veh CYB561 (11721691_x_at) / RFU ANKRD19P (11752326_a_at) / Fold change /veh ANKRD19P (11752326_a_at) / RFU OR2T12 /// OR2T33 /// OR2T8 (11738714_s_at) / Fold change /veh OR2T12 /// OR2T33 /// OR2T8 (11738714_s_at) / RFU VCAN (11748164_a_at) / Fold change /veh VCAN (11748164_a_at) / RFU JSRP1 (11732532_at) / Fold change /veh JSRP1 (11732532_at) / RFU KRTAP10-11 (11738290_x_at) / Fold change /veh KRTAP10-11 (11738290_x_at) / RFU MYO3A (11730013_a_at) / Fold change /veh MYO3A (11730013_a_at) / RFU EBF3 (11725865_a_at) / Fold change /veh EBF3 (11725865_a_at) / RFU CAMK2N1 (11719241_x_at) / Fold change /veh CAMK2N1 (11719241_x_at) / RFU C5orf56 (11738088_a_at) / Fold change /veh C5orf56 (11738088_a_at) / RFU OLFML3 (11715873_a_at) / Fold change /veh OLFML3 (11715873_a_at) / RFU LOC100653217 /// NTM (11731650_a_at) / Fold change /veh LOC100653217 /// NTM (11731650_a_at) / RFU MAPK11 (11762145_a_at) / Fold change /veh MAPK11 (11762145_a_at) / RFU FIZ1 (11724087_x_at) / Fold change /veh FIZ1 (11724087_x_at) / RFU OASL (11726364_x_at) / Fold change /veh OASL (11726364_x_at) / RFU SOX15 (11748057_x_at) / Fold change /veh SOX15 (11748057_x_at) / RFU CD79A (11719716_a_at) / Fold change /veh CD79A (11719716_a_at) / RFU HIST1H1D (11736915_at) / Fold change /veh HIST1H1D (11736915_at) / RFU CASKIN2 (11723855_a_at) / Fold change /veh CASKIN2 (11723855_a_at) / RFU LOC730098 (11760151_x_at) / Fold change /veh LOC730098 (11760151_x_at) / RFU OR4N2 (11742367_at) / Fold change /veh OR4N2 (11742367_at) / RFU PRRT2 (11749266_a_at) / Fold change /veh PRRT2 (11749266_a_at) / RFU SNX32 (11753110_a_at) / Fold change /veh SNX32 (11753110_a_at) / RFU CDHR5 (11726645_a_at) / Fold change /veh CDHR5 (11726645_a_at) / RFU RCAN1 (11760418_a_at) / Fold change /veh RCAN1 (11760418_a_at) / RFU FAM167A (11723789_a_at) / Fold change /veh FAM167A (11723789_a_at) / RFU FAM26E (11764081_at) / Fold change /veh FAM26E (11764081_at) / RFU ISYNA1 (11749810_s_at) / Fold change /veh ISYNA1 (11749810_s_at) / RFU ACY1 (11761880_at) / Fold change /veh ACY1 (11761880_at) / RFU 11764098_at / Fold change /veh 11764098_at / RFU SAMD14 (11745864_x_at) / Fold change /veh SAMD14 (11745864_x_at) / RFU NPB (11741838_a_at) / Fold change /veh NPB (11741838_a_at) / RFU TMPRSS6 (11731388_a_at) / Fold change /veh TMPRSS6 (11731388_a_at) / RFU KRTAP10-2 (11738614_at) / Fold change /veh KRTAP10-2 (11738614_at) / RFU ARHGAP8 /// PRR5-ARHGAP8 (11727945_x_at) / Fold change /veh ARHGAP8 /// PRR5-ARHGAP8 (11727945_x_at) / RFU KRTAP5-7 /// NADSYN1 (11734609_at) / Fold change /veh KRTAP5-7 /// NADSYN1 (11734609_at) / RFU RASL12 (11751679_a_at) / Fold change /veh RASL12 (11751679_a_at) / RFU CDKN2B (11736163_a_at) / Fold change /veh CDKN2B (11736163_a_at) / RFU PRF1 (11729649_at) / Fold change /veh PRF1 (11729649_at) / RFU, ZNF638 /// ZNF638-IT1 / Fold change vs veh, ZNF638 /// ZNF638-IT1 / RFU, PANK3 / Fold change vs veh, PANK3 / RFU, SH3YL1 / Fold change vs veh, SH3YL1 / RFU, ZEB2 / Fold change vs veh, ZEB2 / RFU, NRIP1 / Fold change vs veh, NRIP1 / RFU, PTTG1IP / Fold change vs veh, PTTG1IP / RFU, CAPN2 / Fold change vs veh, CAPN2 / RFU, MED14 / Fold change vs veh, MED14 / RFU, SNORA58 / Fold change vs veh, SNORA58 / RFU, C1orf63 / Fold change vs veh, C1orf63 / RFU, LRRFIP1 / Fold change vs veh, LRRFIP1 / RFU, NDUFAF7 / Fold change vs veh, NDUFAF7 / RFU, SLC12A2 / Fold change vs veh, SLC12A2 / RFU, IBTK / Fold change vs veh, IBTK / RFU, ESF1 / Fold change vs veh, ESF1 / Fold change vs veh, TMEM50B / RFU, TAOK1 / Fold change vs veh, TAOK1 / RFU, ACBD3 / Fold change vs veh, ACBD3 / RFU, TMA16 / Fold change vs veh, TMA16 / RFU, RWDD3 / Fold change vs veh, RWDD3 / RFU, BCAT1 / Fold change vs veh, BCAT1 / RFU, EDEM3 / Fold change vs veh, EDEM3 / RFU, TMEM33 / Fold change vs veh, TMEM33 / RFU, WDR75 / Fold change vs veh, WDR75 / RFU, AHCTF1 / Fold change vs veh, AHCTF1 / RFU, TFRC / Fold change vs veh, TFRC / RFU, ZDHHC17 / Fold change vs veh, ZDHHC17 / RFU, NOM1 / Fold change vs veh, NOM1 / RFU, ARL8B / Fold change vs veh, ARL8B / RFU, ZBTB11 / Fold change vs veh, ZBTB11 / RFU, TAMM41 / Fold change vs veh, TAMM41 / RFU, KIAA1704 /// LOC100996395 / Fold change vs veh, KIAA1704 /// LOC100996395 / RFU, ING1 / Fold change vs veh, ING1 / RFU, TRMT61B / Fold change vs veh, TRMT61B / RFU, FUBP3 / Fold change vs veh, FUBP3 / RFU, TP53 / Fold change vs veh, TP53 / RFU, TNKS2 / Fold change vs veh, TNKS2 / RFU, ZFP14 / Fold change vs veh, ZFP14 / RFU, ACTR2 / Fold change vs veh, ACTR2 / RFU, PPP3R1 / Fold change vs veh, PPP3R1 / RFU, PIK3R1 / Fold change vs veh, PIK3R1 / RFU, HNRNPA1 / Fold change vs veh, HNRNPA1 / RFU, RNF170 / Fold change vs veh, RNF170 / RFU, ZNF28 / Fold change vs veh, ZNF28 / RFU, RNGTT / Fold change vs veh, RNGTT / RFU, OGT / Fold change vs veh, OGT / RFU, BRD1 / Fold change vs veh, BRD1 / RFU, MARS / Fold change vs veh, MARS / RFU, ZNF655 / Fold change vs veh, ZNF655 / RFU, FAHD1 / Fold change vs veh, FAHD1 / RFU, BDP1 / Fold change vs veh, BDP1 / RFU, LRRCC1 / Fold change vs veh, LRRCC1 / RFU, ARID1A / Fold change vs veh, ARID1A / RFU, ZNF146 / Fold change vs veh, ZNF146 / RFU, ZNF330 / Fold change vs veh, ZNF330 / RFU, GPN3 / Fold change vs veh, GPN3 / RFU, C9orf123 / Fold change vs veh, C9orf123 / RFU, N4BP2L2 / Fold change vs veh, N4BP2L2 / RFU, ARFIP1 / Fold change vs veh, ARFIP1 / RFU, FAM179B / Fold change vs veh, FAM179B / RFU, BCL10 / Fold change vs veh, BCL10 / RFU, UHRF1BP1L / Fold change vs veh, UHRF1BP1L / RFU, BET1 / Fold change vs veh, BET1 / RFU, CNOT2 / Fold change vs veh, CNOT2 / RFU, ZNF268 / Fold change vs veh, ZNF268 / Fold change vs veh, ZNF507 / RFU, DGCR2 / Fold change vs veh, DGCR2 / RFU, WDSUB1 / Fold change vs veh, WDSUB1 / Fold change vs veh, HSP90B1 /// MIR3652 / RFU, ADSS / Fold change vs veh, ADSS / RFU, GK / Fold change vs veh, GK / RFU, ZNF148 / Fold change vs veh, ZNF148 / RFU, TAF9 / Fold change vs veh, TAF9 / RFU, SLC1A5 / Fold change vs veh, SLC1A5 / RFU, SLMO2 / Fold change vs veh, SLMO2 / RFU, ABCC4 / Fold change vs veh, ABCC4 / RFU, LOC101060439 /// RAP1B / Fold change vs veh, LOC101060439 /// RAP1B / RFU, RFX7 / Fold change vs veh, RFX7 / RFU, GTPBP10 / Fold change vs veh, GTPBP10 / RFU, CNEP1R1 / Fold change vs veh, CNEP1R1 / RFU, BIVM-ERCC5 /// ERCC5 / Fold change vs veh, BIVM-ERCC5 /// ERCC5 / RFU, ILF3 / Fold change vs veh, ILF3 / RFU 11762660_at / Fold change /veh 11762660_at / RFU VCAN (11757783_s_at) / Fold change /veh VCAN (11757783_s_at) / RFU DDX43 (11728927_at) / Fold change /veh DDX43 (11728927_at) / RFU KRT8 (11758188_x_at) / Fold change /veh KRT8 (11758188_x_at) / RFU NKD1 (11759106_at) / Fold change /veh NKD1 (11759106_at) / RFU SRD5A1 (11742802_a_at) / Fold change /veh SRD5A1 (11742802_a_at) / RFU TPSAB1 /// TPSB2 (11721975_s_at) / Fold change /veh TPSAB1 /// TPSB2 (11721975_s_at) / RFU GSTM3 (11746129_a_at) / Fold change /veh GSTM3 (11746129_a_at) / RFU IL23R (11737362_x_at) / Fold change /veh IL23R (11737362_x_at) / RFU TMEM51 (11727254_a_at) / Fold change /veh TMEM51 (11727254_a_at) / RFU PIWIL2 (11732686_x_at) / Fold change /veh PIWIL2 (11732686_x_at) / RFU ORM1 (11744905_x_at) / Fold change /veh ORM1 (11744905_x_at) / RFU CCDC152 (11743942_at) / Fold change /veh CCDC152 (11743942_at) / RFU ECM1 (11717891_a_at) / Fold change /veh ECM1 (11717891_a_at) / RFU IL23R (11748794_a_at) / Fold change /veh IL23R (11748794_a_at) / RFU TNFAIP8L3 (11732012_x_at) / Fold change /veh TNFAIP8L3 (11732012_x_at) / RFU MBOAT4 (11741988_at) / Fold change /veh MBOAT4 (11741988_at) / RFU 11764193_at / Fold change /veh 11764193_at / RFU TMEM53 (11763286_at) / Fold change /veh TMEM53 (11763286_at) / RFU MAGEB2 (11727129_at) / Fold change /veh MAGEB2 (11727129_at) / RFU TMEM200A (11744735_a_at) / Fold change /veh TMEM200A (11744735_a_at) / RFU CCDC152 (11751479_a_at) / Fold change /veh CCDC152 (11751479_a_at) / RFU FAM211A (11726209_a_at) / Fold change /veh FAM211A (11726209_a_at) / RFU RGS16 (11746705_a_at) / Fold change /veh RGS16 (11746705_a_at) / RFU VCAN (11755009_s_at) / Fold change /veh VCAN (11755009_s_at) / RFU RHOB (11743442_s_at) / Fold change /veh RHOB (11743442_s_at) / RFU RGS16 (11720943_a_at) / Fold change /veh RGS16 (11720943_a_at) / RFU RGS16 (11720944_at) / Fold change /veh RGS16 (11720944_at) / RFU, VPS4B / Fold change vs veh, VPS4B / RFU, CREB1 / Fold change vs veh, CREB1 / RFU, DNAJC13 / Fold change vs veh, DNAJC13 / RFU, GNAQ / Fold change vs veh, GNAQ / RFU, CDK5R1 / Fold change vs veh, CDK5R1 / RFU, ZRANB3 / Fold change vs veh, ZRANB3 / RFU, CUL4A / Fold change vs veh, CUL4A / RFU, CCNY / Fold change vs veh, CCNY / RFU, UFL1 / Fold change vs veh, UFL1 / RFU, COG3 / Fold change vs veh, COG3 / RFU, DIAPH2 / Fold change vs veh, DIAPH2 / RFU, SKA2 / Fold change vs veh, SKA2 / RFU, AFF3 / Fold change vs veh, AFF3 / RFU, LMF1 / Fold change vs veh, LMF1 / RFU, IPO11 / Fold change vs veh, IPO11 / RFU, DFFB / Fold change vs veh, DFFB / RFU, FOXP1 / Fold change vs veh, FOXP1 / RFU, CARD8 / Fold change vs veh, CARD8 / RFU, STRN3 / Fold change vs veh, STRN3 / RFU, ADK / Fold change vs veh, ADK / RFU, RASSF2 / Fold change vs veh, RASSF2 / RFU, WIPF1 / Fold change vs veh, WIPF1 / RFU, LARP1B / Fold change vs veh, LARP1B / RFU, RASA1 / Fold change vs veh, RASA1 / RFU, RB1 / Fold change vs veh, RB1 / RFU, PPFIA1 / Fold change vs veh, PPFIA1 / RFU, MAT2A / Fold change vs veh, MAT2A / RFU, CCT5 / Fold change vs veh, CCT5 / RFU, WDR92 / Fold change vs veh, WDR92 / RFU, CUX1 / Fold change vs veh, CUX1 / RFU, TTC7A / Fold change vs veh, TTC7A / RFU, TMEM135 / Fold change vs veh, TMEM135 / RFU, DEPTOR / Fold change vs veh, DEPTOR / RFU, CPM / Fold change vs veh, CPM / RFU, DNAJB6 / Fold change vs veh, DNAJB6 / RFU, CACNA2D3 / Fold change vs veh, CACNA2D3 / RFU, DTX4 / Fold change vs veh, DTX4 / RFU, TFCP2 / Fold change vs veh, TFCP2 / RFU, GMCL1 /// GMCL1P1 / Fold change vs veh, GMCL1 /// GMCL1P1 / RFU, AEBP2 / Fold change vs veh, AEBP2 / RFU, SNHG1 /// SNORD22 /// SNORD25 /// SNORD26 /// SNORD27 /// SNORD28 /// SNORD29 /// SNORD31 / Fold change vs veh, SNHG1 /// SNORD22 /// SNORD25 /// SNORD26 /// SNORD27 /// SNORD28 /// SNORD29 /// SNORD31 / Fold change (Aza/veh), C12orf56 (ProbeSet 11735607_a_at) / Fold change (ACY-1035/veh), C12orf56 (ProbeSet 11735607_a_at) / Fold change (Aza/veh), FGFR1OP (ProbeSet 11751329_s_at) / Fold change (ACY-1035/veh), FGFR1OP (ProbeSet 11751329_s_at) / Fold change (Aza/veh), VPS36 (ProbeSet 11739960_a_at) / Fold change (ACY-1035/veh), VPS36 (ProbeSet 11739960_a_at) / RFU SYPL1 (11715823_x_at) / Fold change /veh SYPL1 (11715823_x_at) / RFU IGFBP7 (11715501_s_at) / Fold change /veh IGFBP7 (11715501_s_at) / RFU REEP3 (11722064_at) / Fold change /veh REEP3 (11722064_at) / RFU IGLL1 (11728026_x_at) / Fold change /veh IGLL1 (11728026_x_at): dose or concentration left out as unconfirmed
Conditions: ProbeSet 11758170_s_at; LIST D

Nc1ncn([C@@H]2O[C@H](CO)[C@@H](O)[C@H]2O)c(=O)n1 [azacitidine]
RFU, DIAPH2: 23.40 RFU
